Test results as given in article PMC8624133, “10th Trends in Medical Mycology Held on 8 to 11 October 2021, Aberdeen, Scotland, Organized by the European Confederation of Medical Mycology (ECMM)” (Journal of Fungi, 2021).
Starred links: 1 amine or outer side, 2 acyl side, 3 side chain; linkers in the order of their positions; H or OH if unused. Positions of bridges follow the written chain, without caps; N, C: chain ends. Non-standard residues stand in square brackets, D forms with d. Residues, ends and D or L forms follow the SMILES beside them. *: point of attachment. Orn(4R-OH,5R-OCH2CH2NMe3+) = C[N+](C)(C)CCO[C@@H](N[*:3])[C@H](O)C[C@H](N[*:1])C(=O)[*:2]; pTerphenylCO(4''-OnC5H11) = CCCCCOc1ccc(-c2ccc(-c3ccc(C(=O)*)cc3)cc2)cc1; hTyr(3S-OH,4S-OH) = N[C@H](C(=O)O)[C@H](O)[C@@H](O)c1ccc(O)cc1; Pro(3S-OH,4S-Me) = C[C@H]1CN[C@H](C(=O)O)[C@H]1O; Hyp = O=C(O)[C@@H]1C[C@@H](O)CN1

B1: G-CSF (protein, UniProt P09919 31-207, looked up)
Granulocyte …: TPLGPASSLPQSFLLKCLEQVRKIQGDGAALQEKLVSECATYKLCHPEELVLLGHSLGIPWAPLSSCPSQALQLAGCLSQLHSGLFLYQGLLQALEGISPELGPTLDTLQLDVADFATTIWQQMEELGMAPALQPTQGAMPAFASAFQRRAGGVLVASHLQSFLEVSYRVLRHLAQP

What was measured:
[1] = Open-label single-dose study in hepatic impairment; type: in vivo, human
Protocol: Materials &Methods: The safety, tolerability, and PK of rezafungin in subjects with moderate (Group 1a) and severe (Group 2a) HI (Child-Pugh class Band C) and healthysubjects (HS, Groups 1b and 2b) was investigated in this open-label, single-dose study. Each Hl group enrolled was matched to a separate HS group (n = 8 each 32 total) by age, sex and body mass index (BMI) and received a single 400-mg intravenous 1 h infusion of RZF.Plasma PK sampling was performed at various time points through 336 h post- dose. Rezafungin PKparameters were derived using non-compartmental analysis. Safety and tolerability were assessed throughout the study.

Candida albicans (CA) = assay: Post-antifungal effect (PAFE); type: cell-based; conditions: CA clinical isolate; all concentrations (1×, 4×, 16× bMIC), 1 h exposure
Protocol: (§1) Materials &Methods: Six Candida spp. […] For PAFE determinations, antifungal concentrations of 1×, 4×, and 16× bMiC were used. A starting inoculum of 1–[…] CFU/mLwas added to RPMl with the antifungal agent. Post 1 h exposure, cells were washed 3 times and resuspended in 10 mL of pre-warmed RPMl. Colony counts were performed at to, 1 h before and after final washt t2, t4, t8, t12, t24 and t48 h. PAFE was calculated as the difference in time required for isolates to rrow1-logio following the final cell wash compared to the growth control.

C. glabrata (CGLA) = assay: Post-antifungal effect (PAFE); type: cell-based, Candida glabrata
Protocol: as §1

C. parapsilosis (CPRP) = assay: Post-antifungal effect (PAFE); type: cell-based, Candida parapsilosis; conditions: CPRP ATCC 22019, all concentrations
Protocol: as §1

C. albicans = assay: Neutrophil control of hyphal growth (swarming); type: cell-based, Candida albicans; conditions: neutrophils of SOT and SCT recipients, ex vivo
Protocol: Methods and Materials: Twenty-one SOT, 19 SCT and 23 healthy control patients (HC) were identified and consented at primary care/outpatient transplant clinics. Transplant recipients were enrolled at a time period two to four months post-transplant. Following consent and peripheral blood collection, neutrophils were freshly isolated and co-incubated with C. albicans and the percent remaining live yeast was measured using a viability dye compared to a standard control to determine fungal elimination by neutrophils. Growth inhibition of C. albicans was also quantified by neutrophil swarming to yeast spotted onto glass slides, assessed by live cell imaging with or without G-CSF. Effect of soluble factors on neutrophils function was determined by incubation of healthy neutrophils with SOT and SCT serum and measuring ability to control C. albicans.

Molecule | AEs, moderate hepatic impairment group ([1]; all mild severity) | AEs, severe hepatic impairment group ([1]; all moderate severity, unrelated) | AEs, all groups ([1]; in 7 of 32 subjects) | mean exposure lower than in healthy subjects ([1]; moderate or severe HI, single 400-mg intravenous 1 h infusion, AUC, Cmax) | mean half-life ([1]; range across groups, non-compartmental analysis) | PAFE (Candida albicans (CA)) | PAFE (C. glabrata (CGLA); CGLA #3 isolate, 1× bMIC) | PAFE (C. glabrata (CGLA); both CGLA strains, all concentrations) | PAFE (C. parapsilosis (CPRP)) | neutrophil ability to control hyphal growth (C. albicans)
CCCCCOc1ccc(-c2ccc(-c3ccc(C(=O)N[C@H]4C[C@@H](O)[C@@H](OCC[N+](C)(C)C)NC(=O)[C@@H]5[C@@H](O)[C@@H](C)CN5C(=O)[C@H]([C@@H](C)O)NC(=O)[C@H]([C@H](O)[C@@H](O)c5ccc(O)cc5)NC(=O)[C@@H]5C[C@@H](O)CN5C(=O)[C@H]([C@@H](C)O)NC4=O)cc3)cc2)cc1 [rezafungin, Rezafungin] ({pTerphenylCO(4''-OnC5H11)}-[Orn(4R-OH,5R-OCH2CH2NMe3+)]T[Hyp][hTyr(3S-OH,4S-OH)]T[Pro(3S-OH,4S-Me)]; lactam 1-C) | 5 | 3 | 9 | ~ 30% | 110 to 124 h | > 14.9 h | > 46.7 h | > 40 h | > 40 h | 
B1 |  |  |  |  |  |  |  |  |  | partially restored
